Converted amounts (≈) assume the structure as drawn.
What was measured:
[1] = Inhibition of CYP450 in B6C3F1 mouse liver microsomes assessed as inhibition of 20-HETE formation in presence of arachidonic acid and NADPH by multi-enzyme assay based LC-MS/MS analysis; type: ADME, Microsome
[2] = Inhibition of CYP450 in B6C3F1 mouse liver microsomes assessed as inhibition of 20-HETE formation in presence of arachidonic acid and NADPH by multi-enzyme assay based LC-MS/MS analysis relative to control; type: ADME, Microsome
[3] = Solubility of the compound in phospahte-buffered saline buffer at pH 7.4 by shake flask method; type: physicochemical; settings: phosphate-buffered saline
CYP4A11 = target: T1, CYP4A11 (Homo sapiens, UniProt Q02928); test: Inhibition of recombinant human CYP4A11 expressed in baculovirus-infected insect cells at 50 uM incubated for 15 mins in presence of arachidonic acid and NADPH by jump-dilution assay relative to control; type: ADME; settings: probe arachidonic acid
T1 sequence (Q02928 whole entry): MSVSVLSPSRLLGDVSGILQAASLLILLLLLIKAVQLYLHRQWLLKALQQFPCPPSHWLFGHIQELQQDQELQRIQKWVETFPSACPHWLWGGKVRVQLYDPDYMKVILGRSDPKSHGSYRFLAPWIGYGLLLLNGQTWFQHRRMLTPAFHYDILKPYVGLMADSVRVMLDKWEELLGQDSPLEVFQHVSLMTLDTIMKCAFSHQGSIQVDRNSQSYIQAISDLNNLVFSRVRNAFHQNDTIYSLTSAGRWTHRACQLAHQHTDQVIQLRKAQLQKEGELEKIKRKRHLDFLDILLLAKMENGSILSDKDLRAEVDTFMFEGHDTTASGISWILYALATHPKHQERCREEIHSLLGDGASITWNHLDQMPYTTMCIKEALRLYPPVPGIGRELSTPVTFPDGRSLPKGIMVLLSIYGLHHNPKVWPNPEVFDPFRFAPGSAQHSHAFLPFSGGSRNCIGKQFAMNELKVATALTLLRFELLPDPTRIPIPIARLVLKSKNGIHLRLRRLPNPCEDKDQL

[4] = target: CYP450 (EpETrE formation) (Homo sapiens, UniProt P04798+P05177+P05181+P08684+P10632+P10635+P11509+P11712+P13584+P20813+P20815+P20853+P24462+P24903+P33260+P33261+P51589+P78329+P98187+Q02928+Q08477+Q16678+Q16696+Q5TCH4+Q6VVX0+Q7Z449+Q8TAV3+Q96SQ9+Q9HB55); test: Inhibition of CYP450 in human liver microsomes assessed as inhibition of EpETrE formation at 10 uM in presence of arachidonic acid and NADPH by multi-enzyme assay based LC-MS/MS analysis relative to control; type: ADME, Microsome; settings: probe arachidonic acid
[5] = Drug recovery in human liver microsomes assessed as NADPH-fortified oxidative metabolism recovery in presence of arachidonic acid incubated for 30 mins; type: ADME, Microsome; settings: read-out: Drug recovery
Cytochrome P450 4F2 = target: T2, Cytochrome P450 4F2 (Homo sapiens, UniProt P78329); test: Inhibition of recombinant human CYP4F2 expressed in baculovirus-infected insect cells in presence of arachidonic acid and NADPH incubated for 15 mins by jump-dilution assay; type: ADME
T2 sequence (P78329 whole entry): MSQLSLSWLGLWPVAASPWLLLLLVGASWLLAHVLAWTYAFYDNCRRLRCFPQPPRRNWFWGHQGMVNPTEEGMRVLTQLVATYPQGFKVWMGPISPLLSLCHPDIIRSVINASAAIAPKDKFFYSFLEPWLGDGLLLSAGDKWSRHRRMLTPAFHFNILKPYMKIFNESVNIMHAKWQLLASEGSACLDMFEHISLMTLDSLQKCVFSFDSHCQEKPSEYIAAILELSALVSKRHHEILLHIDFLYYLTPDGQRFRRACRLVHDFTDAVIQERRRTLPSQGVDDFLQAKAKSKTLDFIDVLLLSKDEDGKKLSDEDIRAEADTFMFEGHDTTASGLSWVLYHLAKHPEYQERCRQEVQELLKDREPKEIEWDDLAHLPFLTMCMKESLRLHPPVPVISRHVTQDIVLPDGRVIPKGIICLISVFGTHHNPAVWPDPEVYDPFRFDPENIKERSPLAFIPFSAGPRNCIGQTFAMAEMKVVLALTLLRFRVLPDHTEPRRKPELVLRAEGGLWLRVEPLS

[6] = Inhibition of CYP450 in Sprague-Dawley rat liver microsomes assessed as inhibition of 20-HETE formation in presence of arachidonic acid and NADPH by multi-enzyme assay based LC-MS/MS analysis relative to control; type: ADME, Microsome
[7] = target: CYP450 (20-HETE formation) (Homo sapiens, UniProt P04798+P05177+P05181+P08684+P10632+P10635+P11509+P11712+P13584+P20813+P20815+P20853+P24462+P24903+P33260+P33261+P51589+P78329+P98187+Q02928+Q08477+Q16678+Q16696+Q5TCH4+Q6VVX0+Q7Z449+Q8TAV3+Q96SQ9+Q9HB55); test: Inhibition of CYP450 in human HCT-116 cells assessed as 20-HETE formation in presence of arachidonic acid incubated for 15 mins by multi-enzyme assay based LC-MS/MS analysis; type: ADME, cell-based; settings: probe arachidonic acid
Cytochrome P450 4A11 = target: T3, Cytochrome P450 4A11 (Homo sapiens, UniProt Q02928); test: Inhibition of recombinant human CYP4A11 expressed in baculovirus-infected insect cells in presence of arachidonic acid and NADPH incubated for 15 mins by jump-dilution assay relative to control; type: ADME
T3 sequence (Q02928 whole entry): T1 sequence (Q02928 whole entry)

[8] = Apparent permeability of the compound in human Caco-2 cells; type: ADME, cell-based
[9] = Inhibition of CYP450 in Sprague-Dawley rat liver microsomes assessed as inhibition of 20-HETE formation in presence of arachidonic acid and NADPH by multi-enzyme assay based LC-MS/MS analysis; type: ADME, Microsome
Cytochrome P450 2J2 = target: T4, Cytochrome P450 2J2 (Homo sapiens, UniProt P51589); test: Inhibition of recombinant human CYP2J2 expressed in baculovirus-infected insect cells in presence of arachidonic acid and NADPH incubated for 15 mins by jump-dilution assay relative to control; type: ADME
T4 sequence (P51589 whole entry): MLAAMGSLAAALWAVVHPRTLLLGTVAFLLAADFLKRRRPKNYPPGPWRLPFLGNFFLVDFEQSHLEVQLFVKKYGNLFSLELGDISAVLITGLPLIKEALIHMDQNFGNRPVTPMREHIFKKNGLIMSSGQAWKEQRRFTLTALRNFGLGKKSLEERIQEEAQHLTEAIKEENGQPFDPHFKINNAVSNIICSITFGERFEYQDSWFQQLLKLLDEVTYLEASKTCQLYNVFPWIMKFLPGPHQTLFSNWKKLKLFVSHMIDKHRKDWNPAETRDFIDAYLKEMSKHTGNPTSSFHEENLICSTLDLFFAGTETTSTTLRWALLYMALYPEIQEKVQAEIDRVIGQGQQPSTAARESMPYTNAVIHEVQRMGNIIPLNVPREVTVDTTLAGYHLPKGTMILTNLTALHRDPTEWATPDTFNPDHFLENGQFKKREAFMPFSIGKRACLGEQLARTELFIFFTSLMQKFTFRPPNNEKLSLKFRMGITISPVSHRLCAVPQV

- IC50 [1]: 7.6 µM
- IC50 [2]: 0.71 µM
- solubility thermodynamic [3]: 3.4 µM (≈ 0.987 µg/mL)
- inhibition at 0.25 h, 50 µM (CYP4A11): < 25%
- inhibition at 10 µM [4]: < 15%
- remaining at 0.5 h [5]: 87%
- IC50 (Cytochrome P450 4F2): 0.87 µM
- IC50 [6]: 1.4 µM
- IC50 at 15 min [7]: 1.1 µM
- IC50 (Cytochrome P450 4A11): 50 µM
- Papp [8]: 41 nm/s
- IC50 [9]: 4.3 µM
- IC50 (Cytochrome P450 2J2): 50 µM
SMILES: O=c1cc(-c2ccc(C(F)(F)F)cc2)oc2ccccc12
